Literature values, collected in patent publication US20090048317A1, “Formulations of candesartan” (priority 2007, published 2009).

Settings: in water and in methanol

solubility: sparingly soluble
SMILES: CCOc1nc2cccc(C(=O)OC(C)OC(=O)OC3CCCCC3)c2n1Cc1ccc(-c2ccccc2-c2nnn[nH]2)cc1 (racemic) [Candesartan cilexetil, (±)-1-[[(cyclohexyloxy)carbonyl]oxy]ethyl-2-ethoxy-1-[[′-(1H-tetrazol-5-yl)[1,1-biphenyl]-4-yl]methyl]-1H-benzimidazole-7-carboxylate]
